# Results: patent publication US9657046B2, “Methods for the treatment and prevention of inflammatory diseases” (Children's Medical Center Corporation, priority 2010, dated 2017)
# Experiments:
# T-bet−/− mice = test: OVA-induced AHR in T-bet−/− mice treated with glycolipid at 2 weeks of age; assay type: in vivo, mouse; conditions: 2 wk old T-bet−/− mice; α-C-GalCer 5 μg or PI57 50 μg; AHR measured on day 44
# Procedure: In FIGS. 6A-6B, two-week-old BALB/c mice (n=6-8/group) (6A) or Tbet^−/− mice (6B) (n=4-6 per group) received 5 μg […] (cGal), 2 μg α-GalCer, or vehicle. After OVA sensitization and challenge, AHR was measured on day 44. In FIG. 6C, donor mice were treated with α-C-GalCer (5 μg) or vehicle i.p. NKT cells served as donors, as in FIG. 4A (n=4 per group). Lung resistance (left) and cell counts in BAL (right) were assessed. […] In FIG. 6E, mice received PI57 (50 μg), α-GalCer (2 μg), or vehicle i.p., and lungs were examined 1 or 14 days later for CD4 and CD8 expression. In FIG. 6F, absolute numbers of CD4^+ NKT and DN NKT subsets from 6E were assessed. In FIG. 6G, BALB/c mice (n=5-8/group) received PI57 or vehicle i.p. Lung resistance (left) and BAL cells (right) were assessed. In FIG. 6H, BALB/c mice treated with PI57 (50 μg), PBS30 (Sphingomonas glycolipid) (50 μg), or vehicle i.p. were assessed for AHR as in 6G. […] Lung resistance (left) and BAL cells (right) were assessed (n=4 per group). […]
# In FIG. 10, NKT cells from α-GalCer or vehicle-treated mice were adoptively transferred to OVA-sensitized BALB/c recipients. AHR was measured after OVA challenge. […] After sensitization and challenge with OVA, AHR was measured on day 44. […]
# To induce AHR, BALB/c mice were sensitized with 100 μg of OVA (Sigma-Aldrich) in alum administered i.p (on day 0). […] AHR was assessed on the day after last OVA-challenge. […]
# mouse NKT cell lines = test: Staining of mouse NKT cell line with PI57-loaded CD1d tetramers; assay type: binding
# Procedure: In FIG. 7A, NKT cell lines were cocultured with BM-derived DCs (BMDCs) and α-GalCer (100 ng/ml), PI57 (10 μg/ml), or vehicle for 48 hours, with or without pre-incubation with anti-CD1d (10 μg/ml). IFN-γ was measured by ELISA. In FIG. 7B, murine NKT cell lines were cocultured as in 7A with BMDCs from WT, Cd1d^−/−, Myd88^−/−, or Trif^−/− mice. Cells were treated with α-GalCer (100 ng/ml), PI57 (2.5, 5, or 10 μg/ml), PBS30 (1, 2.5, or 5 μg/ml), or vehicle for 48 hours. IFN-γ and IL-4 were measured by ELISA. […] In FIG. 7D, mouse NKT cell lines were stained with PE-labeled CD1d tetramers of PI57 or α-GalCer at 4° C. for 45 minutes or 37° C. for 25 minutes, and with anti-TCRβ-APC antibody. Top: Lymphocytes were gated in the FSC/SSC window. Bottom: Percentage of CD1d tetramer+ cells. […] In FIG. 7G, CD1d Fc-coated Maxisorp plates were loaded with lipid and cultured with 5×10^4 NKT cells. IFN-γ was analyzed by ELISA after 24 hours. Data represent 3 or 5 independent experiments.
# To generate PI57 loaded mCD1d monomers, a 10-fold molar excess of PI57 in DMSO at 2 mg/ml was incubated with biotinylated-mCD1d (from the NIH Tetramer facility) in 2 mM CHAPS and 20 mM Tris pH7.0 overnight at room temperature. […]
# Cells were preincubated with anti-Fey blocking mAb (2.4G2) and washed before staining. […] Cells were analyzed on a BDCanto flow cytometer (BD Biosciences) using FlowJo 8.3.3 software (Tree Star, Inc.).
# [1] = tested on: OVA-sensitized BALB/c mice; test: Adoptive transfer of NKT cells from glycolipid-treated mice into OVA-sensitized BALB/c recipients (AHR, BAL); assay type: in vivo, mouse; conditions: OVA-sensitized WT recipients
smiles,measurement,setting,value
"CCCCCCCCCCCCCC(=O)OC[C@H]1O[C@H](O[C@H]2CC[C@@]3(C)C(=CC[C@H]4[C@@H]5CC[C@H]([C@H](C)CCCC(C)C)[C@@]5(C)CC[C@@H]43)C2)[C@H](O)[C@@H](O)[C@@H]1O [PI57, Cholesteryl 6-O-tetradecanoyl-α-D-glucopyranoside]",protection against OVA-induced AHR in T-bet−/− mice,T-bet−/− mice,did not protect against subsequent OVA-induced AHR
same,fraction of PI57-CD1d tetramer+ cells that were CD4− (DN),mouse NKT cell lines,92%
same,NKT cells in an NKT cell line stained by glycolipid-loaded CD1d tetramers,mouse NKT cell lines; 4° C. for 45 minutes or 37° C. for 25 minutes,10-23%
same,"airway inflammation (BAL cells, lung sections) in recipients of NKT cells from glycolipid-treated donors","[1]; donors treated i.p. at 2 wk (α-C-GalCer 5 μg, PI57 50 μg)",suppressed AHR and airway inflammation
same,AHR in recipients of NKT cells from glycolipid-treated donors,"[1]; donors treated i.p. at 2 wk (α-C-GalCer 5 μg, PI57 50 μg, or α-GalCer), NKT cells harvested 6 wks later",suppressed AHR
